In patent US20230192618A1, “CRYSTALLINE SALT FORMS OF N-(4-(4-(CYCLOPROPYLMETHYL)PIPERAZINE-1-CARBONYL)PHENYL)QUINOLINE-8-SULFONAMIDE” (Agios Pharmaceuticals, Inc., priority 2019, published 2023):

Tests used:
[1] = Crystalline stability by XRPD after 7 days at 40° C./75% RH; format: physicochemical; conditions: for Crystalline Stability (XRPD pattern): after 7 days at 40° C./75% RH
Text: (§1) The Rigaku Smart-Lab X-ray diffraction system was configured for reflection Bragg- Brentano geometry using a line source X-ray beam. The x-ray source was a Cu Long Fine Focus tube that was operated at 40 kV and 44 ma. That source provided an incident beam profile at the sample that changes from a narrow line at high angles to a broad rectangle at low angles. Beam conditioning slits were used on the line X-ray source to ensure that the maximum beam size was less than 10 mm both along the line and normal to the line. The Bragg-Brentano geometry was a para-focusing geometry controlled by passive divergence and receiving slits with the sample itself acting as the focusing component for the optics. The inherent resolution of Bragg-Brentano geometry was governed in part by the diffractometer radius and the width of the receiving slit used. Typically, the Rigaku Smart-Lab was operated to give peak widths of 0.1 °2θ or less. The axial divergence of the X-ray beam was controlled by 5.0-degree Soller slits in both the incident and diffracted beam paths.
(§2) Powder samples were prepared in a low background Si holder using light manual pressure to keep the sample surfaces flat and level with the reference surface of the sample holder. Each sample was analyzed from 2 to 40 °2θ using a continuous scan of 6 °2θ per minute with an effective step size of 0.02 °2θ.
(§3) The chemical purity analyzed by HPLC and crystalline stability by XRPD for each of the crystalline salt Forms A to M prepared according to the procedures described in Examples 1-13 are summarized in Table 14. In short, these salt forms all yielded a chemical purity higher than 99%.

[2] = Crystalline stability by XRPD after heating (removal of volatiles); format: physicochemical
Text: as §1, §2, §3

SMILES: O=C(c1ccc(NS(=O)(=O)c2cccc3cccnc23)cc1)N1CCN(CC2CC2)CC1 [Form I]
- Crystalline Stability (XRPD pattern) ([1]; listed as Crystalline Malonate Salt Form I): no change in XRPD pattern after 7 days at 40° C./75% RH

SMILES: O=C(c1ccc(NS(=O)(=O)c2cccc3cccnc23)cc1)N1CCN(CC2CC2)CC1 [Form M]
- Crystalline Stability (XRPD pattern) ([1]; listed as Crystalline Tosylate Salt Form M): no change in XRPD pattern after 7 days at 40° C./75% RH

SMILES: O=C(c1ccc(NS(=O)(=O)c2cccc3cccnc23)cc1)N1CCN(CC2CC2)CC1 [Form K]
- Crystalline Stability (XRPD pattern) ([1]; listed as Crystalline Phosphate Salt Form K): no change in XRPD pattern after 7 days at 40° C./75% RH

SMILES: O=C(c1ccc(NS(=O)(=O)c2cccc3cccnc23)cc1)N1CCN(CC2CC2)CC1 [Form C]
- Crystalline Stability (XRPD pattern) ([1]; listed as Crystalline Fumarate Salt Form C): no change in XRPD pattern after 7 days at 40° C./75% RH

SMILES: O=C(c1ccc(NS(=O)(=O)c2cccc3cccnc23)cc1)N1CCN(CC2CC2)CC1 [Form B]
- Crystalline Stability (XRPD pattern) ([1]; listed as Crystalline Fumarate Salt Form B): no change in XRPD pattern after 7 days at 40° C./75% RH or after heating to 120 °C (removal of volatiles)
- Crystalline Stability (XRPD pattern) ([2]; after heating to 120° C. (removal of volatiles)): no change in XRPD pattern after 7 days at 40° C./75% RH or after heating to 120 °C (removal of volatiles)

SMILES: O=C(c1ccc(NS(=O)(=O)c2cccc3cccnc23)cc1)N1CCN(CC2CC2)CC1 [Form F]
- Crystalline Stability (XRPD pattern) ([1]; listed as Crystalline Hydrochloride Salt Form F): no change in XRPD pattern after 7 days at 40° C./75% RH or after heating to 130 °C (removal of volatiles)
- Crystalline Stability (XRPD pattern) ([2]; after heating to 130° C. (removal of volatiles)): no change in XRPD pattern after 7 days at 40° C./75% RH or after heating to 130 °C (removal of volatiles)

SMILES: O=C(c1ccc(NS(=O)(=O)c2cccc3cccnc23)cc1)N1CCN(CC2CC2)CC1 [Form E]
- Crystalline Stability (XRPD pattern) ([1]; listed as Crystalline Gentisate Salt Form E): significant changes in XRPD pattern after 7 days at 40° C./75% RH

SMILES: O=C(c1ccc(NS(=O)(=O)c2cccc3cccnc23)cc1)N1CCN(CC2CC2)CC1 [Form L]
- Crystalline Stability (XRPD pattern) ([1]; listed as Crystalline Tartrate Salt Form L): unique XRPD pattern
- Crystalline Stability (XRPD pattern) ([2]; after heating to 150° C. (removal of volatiles)): becomes non-crystalline

SMILES: O=C(c1ccc(NS(=O)(=O)c2cccc3cccnc23)cc1)N1CCN(CC2CC2)CC1 [Form G]
- Crystalline Stability (XRPD pattern) ([1]; listed as Crystalline Hydrochloride Salt Form G): unique XRPD pattern after 7 days at 40° C./75% RH

SMILES: O=C(c1ccc(NS(=O)(=O)c2cccc3cccnc23)cc1)N1CCN(CC2CC2)CC1 [Form D]
- Crystalline Stability (XRPD pattern) ([1]; listed as Crystalline Gentisate Salt Form D): no change in XRPD pattern after 7 days at 40° C./75% RH

SMILES: O=C(c1ccc(NS(=O)(=O)c2cccc3cccnc23)cc1)N1CCN(CC2CC2)CC1 [Form J]
- Crystalline Stability (XRPD pattern) ([1]; listed as Crystalline Phosphate Salt Form J): additional peaks in XRPD pattern
- Crystalline Stability (XRPD pattern) ([2]; after heating to 175° C. (removal of volatiles)): no change in XRPD pattern

SMILES: O=C(c1ccc(NS(=O)(=O)c2cccc3cccnc23)cc1)N1CCN(CC2CC2)CC1 [Form A]
- crystalline stability by XRPD ([1]; 7 days at elevated temperature and relative humidity (e.g., 40° C./75% RH)): maintained their original forms
- Crystalline Stability (XRPD pattern) ([1]; listed as Crystalline Besylate Salt FormA): no change in XRPD pattern after 7 days at 40° C./75% RH

SMILES: O=C(c1ccc(NS(=O)(=O)c2cccc3cccnc23)cc1)N1CCN(CC2CC2)CC1 [Form H]
- Crystalline Stability (XRPD pattern) ([1]; listed as Crystalline Maleate Salt Form H): no change in XRPD pattern after 7 days at 40° C./75% RH
